Measurements as given in patent publication US8716307B2, “Combination antineoplastic therapy” (The Trustees Of The University of Pennsylvania, priority 2009, dated 2014).

Experiments:
Type in all cases: cell-based
[1] = test system: LN229 cells expressing GFP-LC3; assay: Cell counting of LN229 GFP-LC3 cells (Coulter Z2 particle analyzer, confirmed by trypan blue exclusion); conditions: 5 nM rapamycin and/or 5 μM chloroquine, FIG. 1
Experimental: Cell lines, transfection, and cell counting: LN229 cells were grown in DMEM supplemented with 10% heat-inactivated fetal bovine serum (Gemini Biosciences, Woodland, Calif.), 10 units/ml penicillin/streptomycin, and 2 mM L-glutamine (Invitrogen Corporation). LN229 cells were transfected with lipofectamine 2000 (Invitrogen) according to manufacturer protocol. Stable transfectants were selected with neomycin (Gibco), and high fluorescence clones of LN229 GFP-LC3 were selected by limiting dilution. For all in vitro experiments media+supplements and drugs treatments were changed daily. Cell number was assessed by using a Coulter Z2 particle analyzer and confirmed by trypan blue exclusion.

LN229 GFP-LC3 cells [2] = assay: Fluorescence microscopy of GFP-LC3 puncta (autophagosome accumulation); conditions: increasing doses; 48 hours of treatment; FIG. 2
Experimental: Punctate flouresence indicates the accumulation of LC3-positive autophagosomes.
Fluorescence Microscopy: Cells were grown in sterile glass coverslips and treated in full medium as indicated above. After 48 hours of treatment cells were fixed with 4% paraformaldehyde and imaged using a Nikon upright fluorescent microscope. Images were captured at 100× and representative images were reported.

LN229 GFP-LC3 cells [3] = assay: Electron microscopy of autophagic vesicles; conditions: FIG. 3
Text: Cells were postfixed with 2% osmium tetroxide followed by an increasing gradient dehydration step using ethanol and propylene oxide.

| Structure (SMILES) | cell number [1] | accumulation of LC3-positive autophagosomes (punctate fluorescence) (LN229 GFP-LC3 cells [2]) | autophagosomes in electron micrographs (LN229 GFP-LC3 cells [3]) |
| --- | --- | --- | --- |
| CCN(CC)CCCC(C)Nc1ccnc2cc(Cl)ccc12 (centres unmarked) [chloroquine] | decrease in cell number | accumulated LC3-positive autophagosomes | – |
| CO[C@H]1C[C@@H]2CC[C@@H](C)[C@@](O)(O2)C(=O)C(=O)N2CCCC[C@H]2C(=O)O[C@H]([C@H](C)C[C@@H]2CC[C@@H](O)[C@H](OC)C2)CC(=O)[C@H](C)/C=C(\C)[C@@H](O)[C@@H](OC)C(=O)[C@H](C)C[C@H](C)/C=C/C=C/C=C/1C [rapamycin] | decrease in cell number | accumulated LC3-positive autophagosomes | autophagosomes are observed |
